US20240335542A1, “NANOMATERIALS COMPRISING DISULFIDES” (Beam Therapeutics Inc., priority 2021, published 2024)

What was measured:
[1] = LNP hydrodynamic diameter and polydispersity index by dynamic light scattering (DLS); type: physicochemical; conditions: LNP of 47.5% ionizable lipid: 40% cholesterol: 2.5% PEG-2000 DMG: 10% DPSC, N/P 4-8
Description: (§1) LNPs were prepared with 47.5% Ionizable Lipid (e.g., a compound provided herein): 40% cholesterol: 2.5% PEG-2000 DMG; and 10% DPSC and an N/P ratio range of 4-8. LNPs were formed by microfluidic mixing of the lipid and NA solutions using a Precision Nanosystems NanoAssemblr Spark or Benchtop series Instruments, according to the manufacturers protocol. A ratio of aqueous to organic solvent of approximately 2:1 or 3:1 was maintained during mixing using differential flow rates. After mixing, LNPs were collected, diluted in phosphate buffer saline (PBS) or Tris-buffered saline (TBS) (approximately 1:1 v/v). Further buffer exchange was conducted using dialysis in PBS or TBS at 4° C. for 4 to 24 hours against a 20 kDa filter. After this initial dialysis, each individual LNP preparation was characterized via dynamic light scattering (DLS) to measure the size (e.g., diameter) and polydispersity. LNPs falling within specific diameter and polydispersity ranges were pooled, and further dialyzed against PBS or TBS at 4° C. for 1 to 4 hours against a 100 kDa dialysis cassette. After the second dialysis, LNPs were sterile filtered using 0.22 μm filter and stored at 4° C. for further use.
LNP hydrodynamic diameter and polydispersity index (PDI) were measured using high throughput dynamic light scattering (DLS) (Stunner, Unchained Labs). LNPs were diluted 1×TBS or PBS to an appropriate concentration and analyzed.

ALAS1 target site = test: In vivo base editing with LNP carrying adenine base editor mRNA and sgRNA, targeted deep sequencing; conditions: LNP with ABE mRNA + sgRNA, 0.15 mg/kg total RNA, tail vein, Balb/C mice, four to six days post-dose
Description: Exemplary LNP preparations were selected to determine each preparation's ability to perform base editing in a Balb/C mouse model as described herein.
Lipid nanoparticle components were dissolved in 100% ethanol at specified lipid component molar ratios. mRNA encoding an adenine base editor and a chemically-modified sgRNA was dissolved at a mass ratio of 1:1 in 50 mM citrate, pH 4.0, resulting in a concentration of NA cargo of approximately 0.1 mg/mL.
LNP preparations were formulated with molar ratios of 47.5% Ionizable Lipid: 40% Cholesterol: 2.5% PEG2000-DMG: 10% DSPC total lipid to NA mass ratio of 6 to 12. […]
A 3:1 ratio of aqueous to organic solvent was maintained during mixing using differential flow rates. […] After this initial dialysis, each individual LNP preparation was characterized via dynamic light scattering (DLS) to measure size and polydispersity. pKa of a subpopulation of LNP preparations was measured via TNS assay. […]
Age-matched mice were also used to administer vehicle (1×TBS) via tail vein injection as a control. […] Base editing was determined by performing targeted deep sequencing analysis at the ALAS1 target site using extracted genomic DNA. […] Library size and concentration was confirmed by Fragment Analyzer (Agilent) and analyzed for whole genome sequencing using an Illumina HiSeq.

[2] = RNA encapsulation efficiency of LNPs by Ribogreen assay; type: physicochemical; conditions: LNP of 47.5% ionizable lipid: 40% cholesterol: 2.5% PEG-2000 DMG: 10% DPSC, N/P 4-8
Description: as §1
RNA concentration and encapsulation efficiency were determined by Ribogreen assay (BioTek Synergy LX plate reader).

[3] = LNP biodistribution in mice, barcode fold above input (FAI) in tissues; type: in vivo; conditions: pooled LNP IV tail vein, 4 hours post-dose, fold above input of barcode
Description: Male and female mice aged approximately 8-12 weeks were used for studies described by the present Example. Each mouse was temporarily restrained and pooled LNP was administered IV via tail vein injection in up to five animals per experiment. Age-matched mice was also used to administer vehicle (1×TBS) via tail vein injection in up to three animals per experiment. Additional routes of administration can also be conducted including intracerebral ventricular (ICV), intracisterna manga (ICM), intrathecal (IT), intramuscular (IM), nebulization, intranasal (IN), subcutaneous (SC), intraarticular, and intradermal (ID). At 4 hours post-dose, tissues including liver, spleen, bone marrow, testes, gastrocnemius, quadricep, lung, heart, kidney, and pancreas may be collected for analysis.
RNA from tissues were extracted using the Reliaprep RNA extraction kit, and libraries were prepared using the RNAseq kit, and sequenced on either a MiSeq or NextSeg500.
To screen for preferential LNP delivery to a target tissues, the relative abundance of each barcode in one or more target tissues was measured and compared to the relative abundance of each barcode to its corresponding relative input abundance to determine fold above input (FAI) for each barcode. If the FAI of a barcode in a target tissue is above a threshold or above the FAI of a different LNP in the same tissue, the LNP can be identified as preferentially delivering to the target tissue.
The FAI is the normalized relative abundance of a barcode in a selected sample as compared to its frequency in the input. The FAI of a barcode indicates how a LNP's abundance changes relative to the rest of the LNP pool. The FAI value of the barcode was calculated by normalizing the relative abundance in the barcode sequence counts in the isolated samples to its relative abundance in the administration input. […] The FAI then indicates the performance of an LNP relative to the input LNP composition.

Structure (SMILES) | Mean Diameter (nm) [1] | Mean PDI [1] | base editing observed in liver (ALAS1 target site) | Mean Encapsulation Efficiency (%) [2] | FAI (Liver) ([3]; liver) | FAI (Lung) ([3]; lung) | FAI (Spleen) ([3]; spleen)
CC/C=C\CCCCOC(CCCC(=O)Oc1ccc(CC(=O)OCCC2CCN(CCSSCCN3CCC(CCOC(=O)Cc4ccc(OC(=O)CCCC(OCCCC/C=C\CC)OCCCC/C=C\CC)cc4)CC3)CC2)cc1)OCCCC/C=C\CC [7-8, (((((disulfanediylbis(ethane-2,1-diyl))bis(piperidine-1,4-diyl))bis(ethane-2,1-diyl))bis(oxy))bis(2-oxoethane-2,1-diyl))bis(4,1-phenylene) bis(5,5-bis(((Z)-oct-5-en-1-yl)oxy)pentanoate)] | 74.9 nm | 0.08 | 13.7% | 87.7% | – | – | –
CC/C=C\CCCCOC(CCC(=O)Oc1ccc(CC(=O)OCCC2CCN(CCSSCCN3CCC(CCOC(=O)Cc4ccc(OC(=O)CCC(OCCCC/C=C\CC)OCCCC/C=C\CC)cc4)CC3)CC2)cc1)OCCCC/C=C\CC [7-9, (((((disulfanediylbis(ethane-2,1-diyl))bis(piperidine-1,4-diyl))bis(ethane-2,1-diyl))bis(oxy))bis(2-oxoethane-2,1-diyl))bis(4,1-phenylene) bis(4,4-bis(((Z)-oct-5-en-1-yl)oxy)butanoate)] | 72.1 nm | 0.09 | – | 88.2% | – | – | –
CCCCC/C=C\C/C=C\CCCCCCCCC(CCCCCCCC/C=C\C/C=C\CCCCC)OC(=O)CCCN(C)C [MC3, (6Z,9Z,28Z,31Z)-heptatriaconta-6,9,28,31-tetraen-19-yl 4-(dimethylamino) butanoate] | – | – | – | – | 0.50 | 1.02 | 1.46
